Source: patent US20170233414A1, “DERIVATIVES OF BODIPY” (OREGON HEALTH & SCIENCE UNIVERSITY, priority 2016, published 2017)

Experiment: Fluorescence properties and quantum yield measurements of the BAA library
Assay type: physicochemical
Parameters: FWHM (full-width-at half max): unit not given here
Conditions: anhydrous DMSO; for λmax ABS / λmax EM: polystyrene 96 well plate; for FWHM (full-width-at half max): emission; for φfl (quantum yield): relative to reference fluorophore at three concentrations
Procedure: General Instruments. Synthesized sample purification was performed with an Agilent 1260 Infinity HPLC utilizing a C18 column (150mm×21.2 mm). MS (HRMS, ESI) spectra data was collected with an Agilent 6244 TOF LC/MS with diode array detector VL+ and C18 column (4.6 mm×50 mm). Absorbance and fluorescence data were measured on a SpectraMax M5 Microplate reader. NMR spectra, ^1H and ^13C, were recorded on a Bruker ARK400 spectrometer. BAA microscopy screening in cells for organelle specificity and signal-to-background ratio was completed with an Axio Zeiss Light Microscope and 63× oil immersion objective.
Fluorescence Properties and Quantum Yield Measurements. Spectroscopic characterizations were performed in anhydrous DMSO in polystyrene 96 well plate. Analysis included the maximum absorbance wavelength, maximum fluorescence emission wavelength, full-width-at half max, and quantum yield. Quantum yields (φfl) were determined by comparing the area under the emission spectrum of the BAA compound to a reference fluorophore solution at three concentrations using equation 1, where Grad represents the gradient from the plots of integrated fluorescence intensity vs absorbance at three concentrations and q is the refractive index of the solvent. Fluorescein in 0.1 M NaOH (φfl=0.91)^3 was the reference for samples with a max absorbance up to 510 nm, where an excitation of 470 nm was used with the emission integrated between 490 to 800 nm. Rhodamine B in ethanol (φfl=0.70) was the reference for samples with a max absorbance between 511-595 nm, where an excitation of 525 nm was used with the emission integrated between 545 to 800 nm. Cresyl violet in methanol (φfl=0.54)^4 was the reference for samples with a max absorbance above 595 nm, where an excitation of 570 nm was used with the emission integrated between 590 to 800 nm.

SMILES	Stokes Shift	λmax ABS	λmax EM	FWHM (full-width-at half max)	φfl (quantum yield)
COc1ccc2c(/C=C(/CC(=O)O)c3ccc4n3[B-](F)(F)[N+]3=C(/C=C/c5c(Cl)ncc6cc(OC)ccc56)C=C(C)C3=C4)c(Cl)ncc2c1 [BAA-1b]	17 nm	580 nm	597 nm	40	0.62
CCOc1ccc2[nH]c(=O)cc(C=CC3=[N+]4C(=Cc5ccc(CCC(=O)O)n5[B-]4(F)F)C(C)=C3)c2c1 [BAA-51a]	13 nm	594 nm	607 nm	42	0.06
COc1cc(C=CC2=[N+]3C(=Cc4ccc(C(=Cc5ccc(OCc6ccccc6C)c(OC)c5)CC(=O)O)n4[B-]3(F)F)C(C)=C2)ccc1OCc1ccccc1C [BAA-41b]	20 nm	582 nm	602 nm	47	0.36
COc1cc(/C=C(/CC(=O)O)c2ccc3n2[B-](F)(F)[N+]2=C(/C=C/c4ccc(OCc5ccc(F)cc5)c(OC)c4)C=C(C)C2=C3)ccc1OCc1ccc(F)cc1 [BAA-22b]	19 nm	582 nm	601 nm	46	0.27
CCOc1ccc(C=CC2=[N+]3C(=Cc4ccc(CCC(=O)O)n4[B-]3(F)F)C(C)=C2)c(OCC)c1 [BAA-47a]	22 nm	589 nm	611 nm	47	0.33
CC1=CC(C=Cc2ccc(OCCBr)cc2)=[N+]2C1=Cc1ccc(CCC(=O)O)n1[B-]2(F)F [BAA-73a]	14 nm	579 nm	593 nm	46	0.55
CC1=CC(C=Cc2cn(CCC(=O)O)c3ccccc23)=[N+]2C1=Cc1ccc(CCC(=O)O)n1[B-]2(F)F [BAA-30a]	36 nm	607 nm	643 nm	58	0.43
CC1=CC(C=Cc2ccc(OCc3ccc([N+](=O)[O-])cc3)cc2)=[N+]2C1=Cc1ccc(CCC(=O)O)n1[B-]2(F)F [BAA-78a]	11 nm	581 nm	592 nm	46	0.19
CC1=CC(/C=C/c2ccc(OCc3ccccc3)cc2)=[N+]2C1=Cc1ccc(CCC(=O)O)n1[B-]2(F)F [BAA-18a]	16 nm	577 nm	593 nm	37	0.65
CCN(CC)c1ccc(/C=C(/CC(=O)O)c2ccc3n2[B-](F)(F)[N+]2=C(/C=C/c4ccc(N(CC)CC)cc4)C=C(C)C2=C3)cc1 [BAA-10b]	82 nm	632 nm	714 nm	102	0.01
CC1=CC(/C=C/c2cccc(I)c2)=[N+]2C1=Cc1ccc(/C(=C\c3cccc(I)c3)CC(=O)O)n1[B-]2(F)F [BAA-24b]	9 nm	570 nm	579 nm	32	0.29
CC1=CC(C=Cc2cnn(-c3ccccc3C)c2C)=[N+]2C1=Cc1ccc(C(=Cc3cnn(-c4ccccc4C)c3C)CC(=O)O)n1[B-]2(F)F [BAA-57b]	16 nm	575 nm	591 nm	38	0.75
COc1cc(OCc2ccccc2)ccc1/C=C(/CC(=O)O)c1ccc2n1[B-](F)(F)[N+]1=C(/C=C/c3ccc(OCc4ccccc4)cc3OC)C=C(C)C1=C2 [BAA-21b]	20 nm	588 nm	608 nm	50	0.54
CC1=CC(/C=C/c2ccc(-c3ccc(C(F)(F)F)cn3)cc2)=[N+]2C1=Cc1ccc(/C(=C\c3ccc(-c4ccc(C(F)(F)F)cn4)cc3)CC(=O)O)n1[B-]2(F)F [BAA-23b]	8 nm	580 nm	588 nm	32	0.19
CC1=CC(C=Cc2cnn(-c3ccccc3)c2C)=[N+]2C1=Cc1ccc(CCC(=O)O)n1[B-]2(F)F [BAA-55a]	16 nm	576 nm	592 nm	35	0.75
COc1ccc(B(O)O)c(/C=C/C2=[N+]3C(=Cc4ccc(CCC(=O)O)n4[B-]3(F)F)C(C)=C2)c1 [BAA-9a]	10 nm	569 nm	579 nm	32	0.35
COc1ccc(/C=C/C2=[N+]3C(=Cc4ccc(CCC(=O)O)n4[B-]3(F)F)C(C)=C2)c2ccccc12 [BAA-8a]	29 nm	594 nm	623 nm	61	0.50
CC1=CC(C=Cc2cc(F)ccc2O)=[N+]2C1=Cc1ccc(C(=Cc3cc(F)ccc3O)CC(=O)O)n1[B-]2(F)F [BAA-31b]	12 nm	576 nm	588 nm	34	0.28
CCCSc1ncc(/C=C/C2=[N+]3C(=Cc4ccc(CCC(=O)O)n4[B-]3(F)F)C(C)=C2)cn1 [BAA-12a]	27 nm	589 nm	616 nm	88	0.10
CCSc1ccc(-c2ccc(C=CC3=[N+]4C(=Cc5ccc(CCC(=O)O)n5[B-]4(F)F)C(C)=C3)cn2)cc1 [BAA-67a]	11 nm	587 nm	598 nm	61	0.15
CC1=CC(/C=C/c2cc(C)c(C)cc2C)=[N+]2C1=Cc1ccc(CCC(=O)O)n1[B-]2(F)F [BAA-16a]	58 nm	552 nm	610 nm	78	0.22
CC1=CC(/C=C/c2ccc(Cl)c(F)c2)=[N+]2C1=Cc1ccc(CCC(=O)O)n1[B-]2(F)F [BAA-54a]	8 nm	573 nm	581 nm	46	0.04
CC1=CC(/C=C/c2cc(Cl)ccc2Cl)=[N+]2C1=Cc1ccc(/C(=C\c3cc(Cl)ccc3Cl)CC(=O)O)n1[B-]2(F)F [BAA-29b]	11 nm	569 nm	580 nm	37	0.13
CC1=CC(C=Cc2ccc(Br)cc2S(C)(=O)=O)=[N+]2C1=Cc1ccc(CCC(=O)O)n1[B-]2(F)F [BAA-33a]	12 nm	575 nm	587 nm	35	0.15
C=CCc1cc(/C=C/C2=[N+]3C(=Cc4ccc(CCC(=O)O)n4[B-]3(F)F)C(C)=C2)ccc1OC [BAA-15a]	16 nm	581 nm	597 nm	39	0.42
COC(=O)c1ccc(-c2cccc(C=CC3=[N+]4C(=Cc5ccc(CCC(=O)O)n5[B-]4(F)F)C(C)=C3)c2)cc1 [BAA-58a]	10 nm	572 nm	582 nm	30	0.70
CC1=CC(C=Cc2ccc(-c3cccnc3)cc2)=[N+]2C1=Cc1ccc(C(=Cc3ccc(-c4cccnc4)cc3)CC(=O)O)n1[B-]2(F)F [BAA-37b]	9 nm	569 nm	578 nm	30	0.55
CC1=CC(/C=C/c2ccccc2N2CCN(C)CC2)=[N+]2C1=Cc1ccc(CCC(=O)O)n1[B-]2(F)F [BAA-4a]	19 nm	581 nm	600 nm	56	0.43
CC1=CC(/C=C/c2ccc(CC(C)C)s2)=[N+]2C1=Cc1ccc(CCC(=O)O)n1[B-]2(F)F [BAA-14a]	13 nm	594 nm	607 nm	70	0.44
CC1=CC(/C=C/c2ccc(-c3cccs3)cc2)=[N+]2C1=Cc1ccc(CCC(=O)O)n1[B-]2(F)F [BAA-19a]	13 nm	582 nm	595 nm	35	0.64
